Data from patent publication US20060134188A1, “Transdermal pharmaceutical preparation with a progesterone A-specific ligand (PRASL) as active ingredient” (priority 2004, published 2006).

Columns and labels:
[1] = background statement; cited from earlier work
[2] = Solubility of PRASL in the adhesive matrix; assay type: physicochemical; conditions: acrylate adhesive matrix DuroTak 387-2287
Excerpt: The selection of suitable adhesive matrices occurs based on the solubility of PRASL in the adhesive matrices. Suitable adhesive matrices for the present invention are those in which the solubility of PRASL is between 0.1 to 5%. Adhesive matrices, in which the solubility of PRASL is between 0.1 to 2%, have proven to be especially suitable.
If the solubility of the adhesive matrix used for PRASL is larger than 2 to 5%, as e.g. in the case of the acrylate adhesive matrix, DuroTak 387-2287, the entire effective ingredient amount dissolves after film-formation and the advantages of the amorphous effective ingredient dispersion according to the present invention cannot be employed.

- Solubility of the adhesive matrix for PRASL [2]: 2 to 5%
Structure (SMILES): O=C1OCc2cc(NC(=O)[C@](O)(CC3(c4cc(C(F)(F)F)ccc4F)CC3)C(F)(F)F)ccc21 [PRASL, (R)-3-{1-[2-fluoro-5-(trifluoromethyl)-phenyl]-cyclopropyl}-2-hydroxy-N-(phthalid-5-yl)-2-(trifluoromethyl)-propanamide]
- Daily dosage that activates pharmacological effects [1]: 30 micrograms
